Source: patent publication US11000033B2, “Ketone or oxime compound, and herbicide” (NISSAN CHEMICAL CORPORATION, priority 2014, dated 2021)

What was measured:
Format in all cases: in vivo
Conditions in all cases: 320 g/ha, 3 weeks after application
[1] = tested on: Echinochloa crus-galli var. crus-galli; assay: Test Example 5: herbicidal effect by foliage application, plastic box (symbol H)
Source text: (§1) Herbicidal Effect Test by Foliage Application
(§2) Sterilized diluvial soil was placed in a plastic box having a length of 21 cm, a width of 13 cm, and a depth of 7 cm. Each of the seeds of Digitaria ciliaris, Setaria viridis, Echinochloa crus-galli var. crus-galli, Avena fatua, Alopecurus myosuroides, Lolium multiflorum Lam., Apera spica-venti, Abutilon theophrasti, Amaranthus retroflexus, Chenopodium album, Stellaria media, Galium spurium, Veronica persica, corn, soybean, rice plant, wheat, beet, and rapeseed was sowed in a spot-like manner and was covered with the soil of a thickness of about 1.5 cm. Thereafter, the plants were grown in the greenhouse of 25° C. to 30° C. After the plants were grown for 14 days, the emulsion agent of the compound of the present invention prepared in accordance with Formulation Example 2 was diluted with water so as to be a predetermined herbicide amount and the diluted emulsion agent was uniformly applied to a foliage part with a small-size spray. 3 weeks later from the herbicide application, the effect to each plant was investigated in accordance with the criteria of Test Example 1.

Amaranthus retroflexus = assay: Test Example 5: herbicidal effect by foliage application, plastic box (symbol N)
Source text: as §1, §2

corn = assay: Test Example 5: effect on crop by foliage application, plastic box (symbol c)
Source text: as §1
(§3) Sterilized diluvial soil was placed in a plastic box having a length of 21 cm, a width of 13 cm, and a depth of 7 cm. Each of the seeds of Digitaria ciliaris, Setaria viridis, Echinochloa crus-galli var. crus-galli, Avena fatua, Alopecurus myosuroides, Lolium multiflorum Lam., Apera spica-venti, Abutilon theophrasti, Amaranthus retroflexus, Chenopodium album, Stellaria media, Galium spurium, Veronica persica, corn, soybean, rice plant, wheat, beet, and rapeseed was sowed in a spot-like manner and was covered with the soil of a thickness of about 1.5 cm. Thereafter, the plants were grown in the greenhouse of 25° C. to 30° C.

Chenopodium album = assay: Test Example 5: herbicidal effect by foliage application, plastic box (symbol O)
Source text: as §1, §2

Apera spica-venti = assay: Test Example 5: herbicidal effect by foliage application, plastic box (symbol L)
Source text: as §1, §2

Veronica persica = assay: Test Example 5: herbicidal effect by foliage application, plastic box (symbol R)
Source text: as §1, §2

soybean = assay: Test Example 5: effect on crop by foliage application, plastic box (symbol d)
Source text: as §1, §3

Lolium multiflorum Lam. = assay: Test Example 5: herbicidal effect by foliage application, plastic box (symbol K)
Source text: as §1, §2

Digitaria ciliaris = assay: Test Example 5: herbicidal effect by foliage application, plastic box (symbol F)
Source text: as §1, §2

rice plant = assay: Test Example 5: effect on crop by foliage application, plastic box (symbol b)
Source text: as §1, §3

Alopecurus myosuroides = assay: Test Example 5: herbicidal effect by foliage application, plastic box (symbol J)
Source text: as §1, §2

wheat = assay: Test Example 5: effect on crop by foliage application, plastic box (symbol e)
Source text: as §1, §3

Avena fatua = assay: Test Example 5: herbicidal effect by foliage application, plastic box (symbol I)
Source text: as §1, §2

beet = assay: Test Example 5: effect on crop by foliage application, plastic box (symbol f)
Source text: as §1, §3

Setaria viridis = assay: Test Example 5: herbicidal effect by foliage application, plastic box (symbol G)
Source text: as §1, §2

Stellaria media = assay: Test Example 5: herbicidal effect by foliage application, plastic box (symbol P)
Source text: as §1, §2

rapeseed = assay: Test Example 5: effect on crop by foliage application, plastic box (symbol g)
Source text: as §1, §3

Abutilon theophrasti = assay: Test Example 5: herbicidal effect by foliage application, plastic box (symbol M)
Source text: as §1, §2

## CCC(C(C)=O)(C(=O)OC)C1CC(O)=C(c2c(C)cc(C)cc2C)C1=O (stereo not drawn) [2-023]
[1]
  H: Echinochloa crus-galli var. crus-galli, herbicidal effect grade: 1 (Herbicidal ratio of 5% or higher and lower than 20%)
Amaranthus retroflexus
  N: Amaranthus retroflexus, herbicidal effect grade: 0 (Herbicidal ratio of 5% or lower (almost no effect))
corn
  c: corn, effect on crop grade: 0 (Herbicidal ratio of 5% or lower (almost no effect))
Chenopodium album
  O: Chenopodium album, herbicidal effect grade: 0 (Herbicidal ratio of 5% or lower (almost no effect))
Apera spica-venti
  L: Apera spica-venti, herbicidal effect grade: 0 (Herbicidal ratio of 5% or lower (almost no effect))
Veronica persica
  R: Veronica persica, herbicidal effect grade: 0 (Herbicidal ratio of 5% or lower (almost no effect))
soybean
  d: soybean, effect on crop grade: 0 (Herbicidal ratio of 5% or lower (almost no effect))
Lolium multiflorum Lam.
  K: Lolium multiflorum Lam., herbicidal effect grade: 1 (Herbicidal ratio of 5% or higher and lower than 20%)
Digitaria ciliaris
  F: Digitaria ciliaris, herbicidal effect grade: 0 (Herbicidal ratio of 5% or lower (almost no effect))
Rice plant
  b: directly sowed rice plant, effect on crop grade: 3 (Herbicidal ratio of 40% or higher and lower than 70%)
Alopecurus myosuroides
  J: Alopecurus myosuroides, herbicidal effect grade: 0 (Herbicidal ratio of 5% or lower (almost no effect))
wheat
  e: wheat, effect on crop grade: 0 (Herbicidal ratio of 5% or lower (almost no effect))
Avena fatua
  I: Avena fatua, herbicidal effect grade: 0 (Herbicidal ratio of 5% or lower (almost no effect))
beet
  f: beet, effect on crop grade: 0 (Herbicidal ratio of 5% or lower (almost no effect))
Setaria viridis
  G: Setaria viridis, herbicidal effect grade: 0 (Herbicidal ratio of 5% or lower (almost no effect))
Stellaria media
  P: Stellaria media, herbicidal effect grade: 0 (Herbicidal ratio of 5% or lower (almost no effect))
rapeseed
  g: rapeseed, effect on crop grade: 0 (Herbicidal ratio of 5% or lower (almost no effect))
Abutilon theophrasti
  M: Abutilon theophrasti, herbicidal effect grade: 0 (Herbicidal ratio of 5% or lower (almost no effect))
